According to patent publication US8263738B2, “Estrogen receptors and methods of use” (Creighton University, priority 2004, dated 2012):

What was measured:
[1] = target: T1, ER-α36 (Homo sapiens, UniProt P03372, I452L); experiment: Western blot of MAPK pathway activation (ERK1/2, Mek1 phosphorylation) in ER-α36 transfected HEK293 cells; assay type: cell-based
T1 construct: expressed in transfected cells; transient transfectants for A11
T1 sequence (P03372 1-310 isoform P03372-4 I279L): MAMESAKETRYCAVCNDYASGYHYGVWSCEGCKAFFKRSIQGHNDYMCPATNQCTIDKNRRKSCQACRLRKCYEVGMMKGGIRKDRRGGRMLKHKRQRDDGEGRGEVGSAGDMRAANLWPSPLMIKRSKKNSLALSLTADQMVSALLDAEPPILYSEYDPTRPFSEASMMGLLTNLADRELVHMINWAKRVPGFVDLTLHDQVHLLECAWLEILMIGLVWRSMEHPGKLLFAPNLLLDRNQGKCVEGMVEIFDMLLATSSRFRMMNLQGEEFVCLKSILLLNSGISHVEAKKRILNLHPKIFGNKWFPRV
Method: (§1) Cell culture, establishment of stable cell lines and membrane-labeling with E2-BSA-FITC. MCF10A cells were obtained from Karmanos Cancer Institute at Detroit, Mich., and human embryonic kidney 293 cells, and all breast cancer cells were obtained from ATCC. All cells were maintained at 37° C. in a 5% CO2 atmosphere in appropriate tissue culture medium. […] The ER-α36 expression vector was constructed by cloning a 1.1-kb EcoRI-BamHI cDNA fragment of ER-α36 from pBS-ER-α36 into the EcoRI and BamHI sites of mammalian expression vector pCB6+. Empty vector was also transfected into cells to serve as controls. Forty-eight hours after transfection, the cells were replated and selected with 500 μg/ml of G418 (Invitrogen) for two weeks. The resulting uncloned population of G418-resistant cells was expanded to generate cells used for further analysis.
(§2) Western blot analysis, indirect immunofluorescence and antibodies. For Western blot analysis, cells were disrupted with RIPA buffer, boiled in gel loading buffer and separated on a 10% SDS-PAGE gel. After electrophoresis, the proteins were transferred to a PVDF membrane (Millipore). The filter was probed with various antibodies and visualized with appropriate HRP-conjugated secondary antibodies (Santa Cruz Biotechnology) and ECL reagents (Perkin Elmer Life Sciences).
(§3) Antibody against ERK1/2 (K-23) was purchased from Santa Cruz Biotechnology. Antibodies used to analyze activation of the MAP kinase pathway included the phosphorylated forms of Mek1 and ERK1/2, and were purchased from Cell Signaling Technology. Rat anti-ER-α antibody (H222) was purchased from Research Diagnostic Inc. Antibodies of COPB (Y-20), mSin3A (AK-11), and 5′ nucleotidase (H-300) were purchased from Santa Cruz biotechnology Inc. D4-GDI (clone 97A1015) was obtained from Upstate Biotechnology.

[2] = tested on: ER-α36 transfected cells; conditions: for block of E2β-stimulated cell growth by anti-estrogens: 10 nM anti-estrogen with E2β; for block of E2β-stimulated cell growth by anti-estrogens / growth of ER-α36 transfected cells, anti-estrogen alone: 48 hours; for growth of ER-α36 transfected cells, anti-estrogen alone: 10 nM
[3] = tested on: control 293 cells transfected with empty expression vector; experiment: Western blot of ERK1/2 phosphorylation in control 293 cells transfected with empty vector; assay type: cell-based, human
Method: as §1, §2
Antibody against ERK1/2 (K-23) was purchased from Santa Cruz Biotechnology. […]

[4] = tested on: ER-α66 negative MDA-MB-231 cells; experiment: Anchorage-independent growth in soft agar; assay type: cell-based, human; conditions: three weeks
Text: The cells were then overlaid onto a 0.7% (wt/vol) agar containing phenol-red free DMEM/F12 medium plus 10% E2-free fetal calf serum in five replica 60 mm dishes. […] After three weeks, colonies were scored using an inverted microscope.

[5] = tested on: control cells transfected with empty vector; experiment: GAL-Elk / 5×Gal4-LUC luciferase reporter in control cells transfected with empty vector; conditions: E2β
[6] = tested on: ER-α66 negative MDA-MB-231 cells; experiment: Western blot of ERK1/2 phosphorylation in MDA-MB-231 cells; assay type: cell-based, human; conditions: 1 nM E2β, serum starved cells, different time periods
Text: For Western blot analysis, cells were disrupted with RIPA buffer, boiled in gel loading buffer and separated on a 10% SDS-PAGE gel. After electrophoresis, the proteins were transferred to a PVDF membrane (Millipore). The filter was probed with antibody against ERK1/2 (K-23) (Santa Cruz Biotechnology), or antibody used against the phosphorylated form of ERK1/2 (Cell Signaling Technology).

[7] = tested on: control cells transfected with empty expression vector; experiment: MTT proliferation assay, control cells transfected with empty expression vector; assay type: cell-based, human; conditions: E2β
[8] = target: T2, ER-α36 (Homo sapiens, UniProt P03372); experiment: Western blot of MAPK pathway activation (ERK1/2, Mek1 phosphorylation) in ER-α36 transfected HEK293 cells; assay type: cell-based; conditions: treated for 10 minutes
T2 construct: expressed in transfected cells; transient transfectants for A11
T2 sequence (P03372 1-310 isoform P03372-4 I279L): T1 sequence (P03372 1-310 isoform P03372-4 I279L)
Method: as §1, §2, §3

[9] = tested on: neurons of ER-α gene knockout (aERKO) mice; conditions: cited from earlier work
[10] = tested on: MDA-MB-231 cells; conditions: high concentration of Tamoxifen; cited from earlier work

Q: For 4OH-Tamoxifen, which “block of ERK1/2 activation mediated by ER-α36 by anti-estrogens” value [1] is on record?
A: did not block

Q: What about the “effect on ERK1/2 activation compared to E2β alone” value [1] of the same molecule?
A: even stronger

Q: And the “block of E2β-stimulated cell growth by anti-estrogens” value [2]?
A: did not block

Q: What about the “growth of ER-α36 transfected cells, anti-estrogen alone” value [2] of the same molecule?
A: strongly stimulated growth

Q: What does the source list for `C[C@]12CC[C@@H]3c4ccc(O)cc4CC[C@H]3[C@@H]1CC[C@@H]2O` [E2β, 17β-estradiol]?
A: increase in the phosphorylation of ERK1/2 in control cells ([3]; E2β 10 nM, empty vector cells): not in the control cells; anchorage-independent growth in soft agar ([4]; 1 nM E2β): strongly promoted; transcription activity of the Elk/Gal4 fusion protein in control cells [5]: had no effect; phosphorylation of ERK1/2 in MDA-MB-231 cells [6]: induced rapid phosphorylation; growth of control cells [7]: had no effect

Q: Which “activation of ERK1/2 phosphorylation by estrogens” value [8] does the source give for `C[C@]12CC[C@@H]3c4ccc(O)cc4CC[C@H]3[C@@H]1[C@@H](O)[C@@H](O)[C@@H]2O` [E4, estetrol] here?
A: activated ERK1/2 phosphorylation at a very similar level

Q: With `C[C@]12CC[C@@H]3c4ccc(O)cc4C[C@@H](CCCCCCCCC[S+]([O-])CCCC(F)(F)C(F)(F)F)[C@H]3[C@@H]1CC[C@@H]2O` (some centres unmarked) [ICI-182, 780] as the molecule, how does the “block of E2β-mediated rapid actions in neurons” value [9] read?
A: not blocked

Q: For `CC/C(=C(\c1ccccc1)c1ccc(OCCN(C)C)cc1)c1ccccc1` [Tamoxifen], which “ERK1/2 activation by Tamoxifen in control cells” value ([3]; same concentration (1 μM), empty vector 293 cells) is on record?
A: had no effect

Q: What about the “effect of Tamoxifen on E2β-promoted growth in soft agar” value ([4]; 1 nM E2β combined with 1 nM tamoxifen) of the same molecule?
A: inhibits the effect of E2β

Q: And the “apoptosis in MDA-MB-231 cells” value [10]?
A: induce apoptosis

Q: What about the “block of E2β-stimulated cell growth by anti-estrogens” value [2] of the same molecule?
A: did not block

Q: And the “growth of ER-α36 transfected cells, anti-estrogen alone” value [2]?
A: strongly stimulated growth

Q: For `N#CC(=C(/N)Sc1ccccc1N)/C(C#N)=C(/N)Sc1ccccc1N` [UO126], which “inhibition of E2β-stimulated cell growth” value ([2]; 7.2 nM UO126, 48 hours) is on record?
A: strongly inhibited
